How the values were obtained:
ALOMY [1] = test: Pre-emergence action against ALOMY, 1280 g/ha; format: in vivo, Alopecurus myosuroides; conditions: visual scoring after about 3 weeks vs untreated controls, 100% = plants have died, 0% = like control plants
Outline: (§1)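 In greenhouse pots of sandy loam, sown weed seeds were covered with soil and treated pre-emergence with the compound in water (600 L/ha, 0.5% additive). Efficacy was assessed visually as percent of untreated control after about 3 weeks.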

DIGSA [2] = test: Pre-emergence action against DIGSA, 1280 g/ha; format: in vivo, Digitaria sanguinalis; conditions: visual scoring after about 3 weeks vs untreated controls, 100% = plants have died, 0% = like control plants
Outline: as §1

ECHCG [3] = test: Pre-emergence action against ECHCG, 1280 g/ha; format: in vivo, Echinochloa crus-galli; conditions: visual scoring after about 3 weeks vs untreated controls, 100% = plants have died, 0% = like control plants
Outline: as §1

LOLRI [4] = test: Pre-emergence action against LOLRI, 1280 g/ha; format: in vivo, Lolium rigidum; conditions: visual scoring after about 3 weeks vs untreated controls, 100% = plants have died, 0% = like control plants
Outline: as §1

POAAN [5] = test: Pre-emergence action against POAAN, 1280 g/ha; format: in vivo, Poa annua; conditions: visual scoring after about 3 weeks vs untreated controls, 100% = plants have died, 0% = like control plants
Outline: as §1

SETVI [6] = test: Pre-emergence action against SETVI, 1280 g/ha; format: in vivo, Setaria viridis; conditions: visual scoring after about 3 weeks vs untreated controls, 100% = plants have died, 0% = like control plants
Outline: as §1

ABUTH [7] = test: Pre-emergence action against ABUTH, 1280 g/ha; format: in vivo, Abutilon theophrasti; conditions: scored visually after about 3 weeks vs untreated controls (100% = plants have died)
Outline: as §1

AMARE [8] = test: Pre-emergence action against AMARE, 1280 g/ha; format: in vivo, Amaranthus retroflexus; conditions: scored visually after about 3 weeks vs untreated controls (100% = plants have died)
Outline: as §1

KCHSC [9] = test: Pre-emergence action against KCHSC, 1280 g/ha; format: in vivo, Bassia scoparia; conditions: scored visually after about 3 weeks vs untreated controls (100% = plants have died)
Outline: as §1

MATIN [10] = test: Pre-emergence action against MATIN, 1280 g/ha; format: in vivo, Tripleurospermum inodorum (Matricaria inodora); conditions: scored visually after about 3 weeks vs untreated controls (100% = plants have died)
Outline: as §1

STEME [11] = test: Pre-emergence action against STEME, 1280 g/ha; format: in vivo, Stellaria media; conditions: scored visually after about 3 weeks vs untreated controls (100% = plants have died)
Outline: as §1

VERPE [12] = test: Pre-emergence action against VERPE, 1280 g/ha; format: in vivo, Veronica persica; conditions: scored visually after about 3 weeks vs untreated controls (100% = plants have died)
Outline: as §1

ALOMY [13] = test: Pre-emergence action at 320 g/ha against ALOMY; format: in vivo, Alopecurus myosuroides; conditions: scored visually after about 3 weeks vs untreated controls (100% = plants have died)
Outline: (§2)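 Application: aqueous WP or EC with 0.5% additive on soil covering seeds, 600 l/ha. Read-out: visual percent damage after ~3 weeks in greenhouse, untreated pots as reference.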

AVEFA = test: Pre-emergence action at 320 g/ha against AVEFA; format: in vivo; conditions: visual scoring after about 3 weeks vs untreated controls
Outline: as §2

DIGSA [14] = test: Pre-emergence action at 320 g/ha against DIGSA; format: in vivo, Digitaria sanguinalis; conditions: visual scoring after about 3 weeks vs untreated controls
Outline: as §2

ECHGC = test: Pre-emergence action at 320 g/ha against ECHGC; format: in vivo, Echinochloa crus-galli; conditions: visual scoring after about 3 weeks vs untreated controls
Outline: as §2

LOLRI [15] = test: Pre-emergence action at 320 g/ha against LOLRI; format: in vivo, Lolium rigidum; conditions: visual scoring after about 3 weeks vs untreated controls
Outline: as §2

SETVI [16] = test: Pre-emergence action at 320 g/ha against SETVI; format: in vivo, Setaria viridis; conditions: visual scoring after about 3 weeks vs untreated controls
Outline: as §2

AMARE [17] = test: Pre-emergence action at 320 g/ha against AMARE; format: in vivo, Amaranthus retroflexus; conditions: visual scoring after about 3 weeks vs untreated controls
Outline: as §2

MATIN [18] = test: Pre-emergence action at 320 g/ha against MATIN; format: in vivo, Tripleurospermum inodorum (Matricaria inodora); conditions: visual scoring after about 3 weeks vs untreated controls
Outline: as §2

PHBPU = test: Pre-emergence action at 320 g/ha against PHBPU; format: in vivo; conditions: visual scoring after about 3 weeks vs untreated controls
Description: b) Seeds of monocotyledonous and dicotyledonous weed plants and crop plants are placed in plastic or organic planting pots and covered with soil. The compounds of the invention, formulated in the form of wettable powders (WP) or as emulsion concentrates (EC), are then applied onto the surface of the covering soil as aqueous suspension or emulsion with addition of 0.5% additive at a water application rate of 600 l/ha (converted). After the treatment, the pots are placed in a greenhouse and kept under good growth conditions for the trial plants. After about 3 weeks, the effect of the preparations is scored visually in comparison with untreated controls as percentages. For example, 100% activity=the plants have died, 0% activity=like control plants. Tables 13 to 26 below show the effects of selected compounds of the general formula (I) on various harmful plants and at an application rate corresponding to 320 g/ha, which were obtained by the experimental procedure mentioned above.

POLCO = test: Pre-emergence action at 320 g/ha against POLCO; format: in vivo, Fallopia convolvulus (Polygonum convolvulus); conditions: visual scoring after about 3 weeks vs untreated controls
Outline: as §2

VERPE [19] = test: Pre-emergence action at 320 g/ha against VERPE; format: in vivo, Veronica persica; conditions: visual scoring after about 3 weeks vs untreated controls
Outline: as §2

VIOTR = test: Pre-emergence action at 320 g/ha against VIOTR; format: in vivo, Viola tricolor; conditions: dosage 320 g/ha
Outline: as §2

ALOMY [20] = test: Post-emergence action against ALOMY, 1.28 kg/ha; format: in vivo, Alopecurus myosuroides; conditions: dosage 1280 g/ha, visual rating about 3 weeks after treatment vs untreated controls
Outline: (§3)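 Visual rating against untreated plants about 3 weeks after spraying gives % activity, where 0% means like controls and 100% means plants died. Plants were treated post-emergence at the one-leaf stage with compound formulated as wettable powder or emulsion concentrate, applied at 600 L water/ha plus 0.5% additive.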

DIGSA [21] = test: Post-emergence action against DIGSA, 1.28 kg/ha; format: in vivo, Digitaria sanguinalis; conditions: dosage 1280 g/ha, visual rating about 3 weeks after treatment vs untreated controls
Outline: as §3

ECHCG [22] = test: Post-emergence action against ECHCG, 1.28 kg/ha; format: in vivo, Echinochloa crus-galli; conditions: dosage 1280 g/ha, visual rating about 3 weeks after treatment vs untreated controls
Outline: as §3

LOLRI [23] = test: Post-emergence action against LOLRI, 1.28 kg/ha; format: in vivo, Lolium rigidum; conditions: dosage 1280 g/ha, visual rating about 3 weeks after treatment vs untreated controls
Outline: as §3

POAAN [24] = test: Post-emergence action against POAAN, 1.28 kg/ha; format: in vivo, Poa annua; conditions: dosage 1280 g/ha, visual rating about 3 weeks after treatment vs untreated controls
Outline: as §3

SETVI [25] = test: Post-emergence action against SETVI, 1.28 kg/ha; format: in vivo, Setaria viridis; conditions: dosage 1280 g/ha, visual rating about 3 weeks after treatment vs untreated controls
Outline: as §3

ABUTH [26] = test: Post-emergence action against ABUTH, 1.28 kg/ha; format: in vivo, Abutilon theophrasti; conditions: dosage 1280 g/ha, visual rating about 3 weeks after treatment vs untreated controls (100% = plants died)
Outline: as §3

AMARE [27] = test: Post-emergence action against AMARE, 1.28 kg/ha; format: in vivo, Amaranthus retroflexus; conditions: dosage 1280 g/ha, visual rating about 3 weeks after treatment vs untreated controls (100% = plants died)
Outline: as §3

KCHSC [28] = test: Post-emergence action against KCHSC, 1.28 kg/ha; format: in vivo, Bassia scoparia; conditions: dosage 1280 g/ha, visual rating about 3 weeks after treatment vs untreated controls (100% = plants died)
Outline: as §3

MATIN [29] = test: Post-emergence action against MATIN, 1.28 kg/ha; format: in vivo, Tripleurospermum inodorum (Matricaria inodora); conditions: dosage 1280 g/ha, visual rating about 3 weeks after treatment vs untreated controls (100% = plants died)
Outline: as §3

STEME [30] = test: Post-emergence action against STEME, 1.28 kg/ha; format: in vivo, Stellaria media; conditions: dosage 1280 g/ha, visual rating about 3 weeks after treatment vs untreated controls (100% = plants died)
Outline: as §3

VERPE [31] = test: Post-emergence action against VERPE, 1.28 kg/ha; format: in vivo, Veronica persica; conditions: dosage 1280 g/ha, visual rating about 3 weeks after treatment vs untreated controls (100% = plants died)
Outline: as §3

With `CSCCOC(=O)COc1nn(-c2ccccc2F)c(-c2ccc(F)nc2)c1Br` [VII-124] the “Pre-emergence action against ALOMY” value (ALOMY [1]) was 100%, the “Pre-emergence action against DIGSA” value (DIGSA [2]) was 100% and the “Pre-emergence action against ECHCG” value (ECHCG [3]) was 100%. The “Pre-emergence action against LOLRI” value (LOLRI [4]) was 100%, the “Pre-emergence action against POAAN” value (POAAN [5]) was 100% and the “Pre-emergence action against SETVI” value (SETVI [6]) was 100%. The “Pre-emergence action against ABUTH” value (ABUTH [7]) was 90%, the “Pre-emergence action against AMARE” value (AMARE [8]) was 100% and the “Pre-emergence action against KCHSC” value (KCHSC [9]) was 90%. For the same molecule, the “Pre-emergence action against MATIN” value (MATIN [10]) was 100%, the “Pre-emergence action against STEME” value (STEME [11]) was 100% and the “Pre-emergence action against VERPE” value (VERPE [12]) was 100%. For the same molecule, the “Pre-emergence action at 320 g/ha against ALOMY in %” value (ALOMY [13]) was 100%, the “Pre-emergence action against AVEFA in %” value (AVEFA) was 90% and the “Pre-emergence action against DIGSA in %” value (DIGSA [14]) was 100%. The “Pre-emergence action against ECHGC in %” value (ECHGC) was 100%, the “Pre-emergence action against LOLRI in %” value (LOLRI [15]) was 100% and the “Pre-emergence action against SETVI in %” value (SETVI [16]) was 100%. For the same molecule, the “Pre-emergence action against AMARE in %” value (AMARE [17]) was 100%, the “Pre-emergence action against MATIN in %” value (MATIN [18]) was 100% and the “Pre-emergence action against PHBPU in %” value (PHBPU) was 90%. The “Pre-emergence action against POLCO in %” value (POLCO) was 100%, the “Pre-emergence action against VERPE in %” value (VERPE [19]) was 100% and the “Pre-emergence action against VIOTR in %” value (VIOTR) was 100%. For the same molecule, the “Post-emergence action against ALOMY” value (ALOMY [20]) was 100%, the “Post-emergence action against DIGSA” value (DIGSA [21]) was 100% and the “Post-emergence action against ECHCG” value (ECHCG [22]) was 100%. The “Post-emergence action against LOLRI” value (LOLRI [23]) was 100%, the “Post-emergence action against POAAN” value (POAAN [24]) was 100% and the “Post-emergence action against SETVI” value (SETVI [25]) was 90%. For the same molecule, the “Post-emergence action against ABUTH” value (ABUTH [26]) was 90%, the “Post-emergence action against AMARE” value (AMARE [27]) was 90% and the “Post-emergence action against KCHSC” value (KCHSC [28]) was 90%. For the same molecule, the “Post-emergence action against MATIN” value (MATIN [29]) was 100%, the “Post-emergence action against STEME” value (STEME [30]) was 100% and the “Post-emergence action against VERPE” value (VERPE [31]) was 100%.
